In US20240207247A1, “METHODS FOR THE COMBINED ADMINISTRATION OF DEUTETRABENAZINE AND A CYP2D6 INHIBITOR” (Neurocrine Biosciences, Inc., priority 2021, published 2024):

Experiments:
[1] = Phase 1 open-label 2-sequence crossover single-dose pharmacokinetic study of deutetrabenazine metabolites; assay type: in vivo, human (healthy male and female subjects); conditions: share of total DHTBZ exposure after single dose deutetrabenazine 24 mg, healthy subjects
Method: A phase 1, open-label, 2-sequence crossover study was conducted to evaluate the HTBZ PK profile following administration of valbenazine (40 mg) or deutetrabenazine (24 mg) to a total of 18 healthy male and female subjects. Subjects received a single dose of valbenazine 40 mg on Day 1 and a single dose of deutetrabenazine 24 mg on Day 16; or received a single dose of deutetrabenazine 24 mg on Day 1 and a single dose of valbenazine 40 mg on Day 16. Valbenazine 40 mg was administered as one 40 mg capsule and deutetrabenazine 24 mg was administered as two 12 mg tablets. Study drug was administered at approximately 0800 hours, approximately 30 minutes after the start of a standard breakfast. […] PK parameters were determined using non-compartmental analysis with Phoenix WinNonlin 8.3 software. The in vitro pharmacology of the deuterated HTBZ metabolites was assessed using competitive radioligand binding assays.

[2] = paroxetine 20 mg daily for 8 days, then single 22.5 mg dose of deutetrabenazine; 24 healthy subjects; cited from earlier work

SMILES: [2H]C([2H])([2H])Oc1cc2c(cc1OC([2H])([2H])[2H])[C@@H]1C[C@@H](O)[C@@H](CC(C)C)CN1CC2 [[−]-β-DHTBZ, (−) -β-3-isobutyl-9,10-di(methoxy-d3)-1,3,4,6,7,11b-hexahydro-2H-pyrido[2,1-a]isoquinolin-2-ol]
- AUC (% of Total) [1]: 3%

SMILES: [2H]C([2H])([2H])Oc1cc2c(cc1OC([2H])([2H])[2H])[C@H]1C[C@H](O)[C@H](CC(C)C)CN1CC2 [[+]-β-DHTBZ, (+)-β-3-isobutyl-9,10-di(methoxy-d3)-1,3,4,6,7,11b-hexahydro-2H-pyrido[2,1-a]isoquinolin-2-ol]
- AUC (% of Total) [1]: 29%

SMILES: COc1cc2c(cc1OC)[C@@H]1C[C@H](O)[C@@H](CC(C)C)CN1CC2 [α-DHTBZ]
- increase in mean half-life in the presence of paroxetine [2]: approximately 1.5 fold

SMILES: [2H]C([2H])([2H])Oc1cc2c(cc1OC([2H])([2H])[2H])[C@H]1C[C@@H](O)[C@H](CC(C)C)CN1CC2 [[+]-α-DHTBZ]
- AUC (% of Total) [1]: 2%

SMILES: [2H]C([2H])([2H])Oc1cc2c(cc1OC([2H])([2H])[2H])[C@@H]1C[C@H](O)[C@@H](CC(C)C)CN1CC2 [[−]-α-DHTBZ, (−)-α-3-isobutyl-9,10-di(methoxy-d3)-1,3,4,6,7,11b-hexahydro-2H-pyrido[2,1-a]isoquinolin-2-ol]
- AUC (% of Total) [1]: 66%
